Test results taken from US20230255954A1, “INTERLEUKIN 33 (IL-33) INHIBITION FOR TREATMENT OF CANCER, FIBROSIS AND INFLAMMATION” (The General Hospital Corporation, priority 2020, published 2023).

How the values were obtained:
Format in all cases: cell-based, mouse
[1] = tested on: endogenous Il33 expression in PyMT breast cancer cell line; assay: Endogenous Il33 RNA in PyMT breast cancer cell line
Protocol: Pam212 cells were grown at 37° C. in DMEM (Thermo Fisher Scientific, Waltham, Mass., catalog no. 11995065) supplemented with 10% fetal bovine serum (Thermo Fisher Scientific, catalog no. 26140079), 1× penicillin-streptomycin-glutamine (Thermo Fisher Scientific, catalog no. 10378016), 1×MEM non-essential amino acids solution (Thermo Fisher Scientific, catalog no. 11140050), 1×HEPES (Thermo Fisher Scientific, catalog no. 15630080) and 0.1% 2-Mercaptoethanol (Thermo Fisher Scientific, catalog no. 21985023). […]
Mouse dorsal skin samples were homogenized and lysed in RLT lysis solution (QIAGEN, catalog no. 79216)/0.1% MeOH using Mini-BeadBeater-8 (BioSpec Products, Inc., Bartlesville, Okla.). Total RNA was extracted using an RNeasy micro kit and quantified using NanoDrop ND-1100 (NanoDrop Technologies, Wilmington, Del.). cDNA samples were synthesized from 1 μg of total RNA using Invitrogen SuperScripts III Reverse Transcriptase (Thermo Fisher Scientific, catalog no. 18080085). Expression levels of all cDNA samples were determined with LightCycler 480 system (Roche Molecular Systems Inc., Pleasanton, Calif.) using TaqMan Universal Master Mix II (Thermo Fisher Scientific, catalog no. 44-400-40). […]

[2] = tested on: IL-33 protein in PyMT cells; assay: IL-33 protein levels in PyMT cells (western blot); settings: dose range
Protocol: Pam212 cells were grown at 37° C. in DMEM (Thermo Fisher Scientific, Waltham, Mass., catalog no. 11995065) supplemented with 10% fetal bovine serum (Thermo Fisher Scientific, catalog no. 26140079), 1× penicillin-streptomycin-glutamine (Thermo Fisher Scientific, catalog no. 10378016), 1×MEM non-essential amino acids solution (Thermo Fisher Scientific, catalog no. 11140050), 1×HEPES (Thermo Fisher Scientific, catalog no. 15630080) and 0.1% 2-Mercaptoethanol (Thermo Fisher Scientific, catalog no. 21985023). PyMT cell lines (derived from a primary breast tumor of MMTV-PyMrg mouse on a C57BL/6 background) were grown at 37° C. in RPMI Medium 1640 (Thermo Fisher Scientific, catalog no. 11875093) supplemented with 10% fetal bovine serum, 1× penicillin-streptomycin-glutamine and 0.1% 2-Mercaptoethanol. IL-33 promoter-luci vector (GeneCopoeia, Rockville, Md., catalog no. MPRM3494-PG02) or Control-luci vector (deletion form of IL-33 promoter region from IL-33 promoter-luci vector) or Poly (I:C) (Invivogen, San Diego, Calif., catalog no. tlrl-pic) in Pam212 cells were performed using Lipofectamine 2000 (Thermo Fisher Scientific, catalog no. 11668019) according to the manufacturer's instructions.
Cell lysates were prepared in LIPA buffer (Thermo Fisher Scientific, catalog no. 89900) consisting of 1× protease inhibitor cocktail, EDTA-free (Thermo Fisher Scientific, catalog no. A32955). […]

[3] = tested on: IRF3 nuclear localization; assay: IRF3 nuclear immunofluorescence staining in poly (I:C) treated Pam212 cells; settings: compared to only Poly (I:C) treated group
Protocol: For immunofluorescence staining, Pam212 cells were permeated with 1×PBS supplemented with 0.2% Triton X-100 for 5 min. Slides were washed three times for three minutes each in 1×PBS with 0.1% TWEEN20. Slides were blocked with 1% bovine serum albumin and 5% goat serum for 1 hour. The slides were stained overnight at 4° C. with IRF3 antibody. The following day, slides were washed as above and incubated for two hours at room temperature with secondary antibodies conjugated to fluorochromes. Next, slides were incubated with 1:2000 DAPI (Thermo Fisher Scientific, catalog no. D3571) for five minutes at room temperature, then washed as above. Slides were mounted with Prolong Gold Antifade Reagent (Thermo Fisher Scientific, catalog no. P36930).
Next, to investigate the mechanism by which pitavastatin can block IL-33 expression, we first confirmed p-IRF3 expression level because IRF3 is a transcription factor of IL-33 expression. […] However, pitavastatin treatment with Poly (I:C) to Pam212 cells, level of p-IRF3 was decreased (FIG. 11A). […] After IRF3 are phosphorylated by upstream, p-IRF3 can translocate to nucleus as a transcription factor.

O=C(O)C[C@H](O)C[C@H](O)/C=C/c1c(C2CC2)nc2ccccc2c1-c1ccc(F)cc1 [pitavastatin]
endogenous Il33 RNA level [1]: inhibitory effect
endogenous IL-33 protein level [2]: decreased
IRF3 nuclear localization [3]: blocked
